Data published in patent EP4563579A1, “MACROCYCLIC EGFR INHIBITOR, AND PREPARATION METHOD THEREFOR AND PHARMACEUTICAL USE THEREOF” (Abbisko Therapeutics Co., Ltd., priority 2022, dated 2024).

Key:
A431 WT = assay: Cell proliferation assay (CellTiter-Glo), A431 WT; format: cell-based; conditions: Homo sapiens, A-431; A431 WT cells, 72 hour incubation, CTG readout
In short: (§1)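 Cells seeded overnight, then exposed 72 h at 37 °C, 5% CO2 to nine 3.16-fold dilutions (top final 10 µM, 0.1% DMSO), triplicate wells. Viability read by CellTiter-Glo luminescence, with a T0 plate read at dosing; IC50 (nM) by non-linear sigmoidal regression.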

[1] = test system: Ba/F3 EGFR-L858R-T790M-C797S (LTC); assay: Cell proliferation assay (CellTiter-Glo), Ba/F3 LTC; format: cell-based; conditions: Mus musculus, BaF3; Ba/F3 EGFR-L858R-T790M-C797S cells, 72 hour incubation, CTG readout
In short: as §1

[2] = test system: Ba/F3 EGFR-DEL19-T790M-C797S (DTC); assay: Cell proliferation assay (CellTiter-Glo), Ba/F3 DTC; format: cell-based; conditions: Ba/F3 EGFR-DEL19-T790M-C797S cells, 72 hour incubation, CTG readout; read-out: IC50 BaF3 DTC
In short: as §1

[3] = test system: Ba/F3 EGFR-L858R-C797S (LC); assay: Cell proliferation assay (CellTiter-Glo), Ba/F3 LC; format: cell-based; conditions: Mus musculus, BaF3; Ba/F3 EGFR-L858R-C797S cells, 72 hour incubation, CTG readout
In short: as §1

[4] = test system: Ba/F3 EGFR-DEL19-C797S (DC); assay: Cell proliferation assay (CellTiter-Glo), Ba/F3 DC; format: cell-based; conditions: Mus musculus, BaF3; Ba/F3 EGFR-DEL19-C797S cells, 72 hour incubation, CTG readout
In short: as §1

[5] = Pharmacokinetic experiment in mice; format: in vivo; conditions: male, mouse; ICR mice, single oral administration (PO), 10 mg/kg, plasma

Compound: CCCS(=O)(=O)C[C@H]1CCN(c2nn3c4cc(ncc24)Nc2ccnc(n2)-c2cnn(C)c2OCC2(CCCC2)C3)C1 [Example 42, (S)-3'-(3-((propylsulfonyl)methyl)pyrrolidin-1-yl)-1'-methylspiro(cyclopentane-1 ,6'-8-oxa-3-aza-4(6,1)-pyrazolo[4,3-c]pyridina-2(2,4)-pyrimidina-1(4,5)-pyrazolacyclooctaphane)]
- IC50 (A431 WT): 593 nM
- IC50 [1]: 1.2 nM
- IC50 [2]: 2.3 nM
- IC50 [3]: 1.9 nM
- IC50 [4]: 3.5 nM
- AUC(0-t) [5]: 4290 ng·h/mL
- Cmax [5]: 1060 ng/mL
- half-life [5]: 3 h

Compound: COC(=O)N[C@@H]1CCN(c2nn3c4cc(ncc24)Nc2ccnc(n2)-c2cnn(C)c2OCC2(CCCC2)C3)C1 [Example 51, Methyl (R)-(1-(1'-methylspiro(cyclopentane-1,6'-8-oxa-3-aza-4 (6,1)-pyrazolo[4,3-c]pyridina-2(2,4)-pyrimidina-1(4,5)-pyrazolacyclooctaphane)-3'-yl)pyrrolidin-3-yl)carbamate]
- IC50 (A431 WT): 424 nM
- IC50 [1]: 9 nM
- IC50 [2]: 10.1 nM
- IC50 [3]: 17.6 nM
- IC50 [4]: 15 nM
- AUC(0-t) [5]: 2690 ng·h/mL
- Cmax [5]: 596 ng/mL
- half-life [5]: 2.8 h

Compound: Cn1ncc2c1OCC1(CCCC1)Cn1nc(N3CC[C@H](NC(=O)C4CC4)C3)c3cnc(cc31)Nc1ccnc-2n1 [Example 54, (S)-N-(1-(1'-methylspiro(cyclopentane-1,6'-8-oxa-3-aza-4(6,1)-pyrazolo[4,3-c]pyridina-2(2,4)-pyrimidina-1(4,5) -pyrazolacyclooctaphane)-3' -yl)pyrrolidin-3-yl)cyclopropanecarboxamide]
- IC50 (A431 WT): 654 nM
- IC50 [1]: 12 nM
- IC50 [2]: 8.7 nM
- IC50 [3]: 31.6 nM
- IC50 [4]: 12.1 nM
- AUC(0-t) [5]: 1730 ng·h/mL
- Cmax [5]: 412 ng/mL
- half-life [5]: 1.3 h

Compound: C[C@H]1CCOc2c(cnn2C)-c2nccc(n2)Nc2cc3c(cn2)c(-c2ccc(CN4CCN(C)CC4)n2C)nn31 [Positive Compoun d, reference compound]
- IC50 (A431 WT): 450 nM
- IC50 [1]: 8 nM
- IC50 [2]: 4.2 nM
- IC50 [3]: 11.5 nM
- IC50 [4]: 4.9 nM
- AUC(0-t) [5]: 204 ng·h/mL
- Cmax [5]: 32.7 ng/mL
- half-life [5]: 4.8 h
